IC50 data for five compounds are collected here from ChEMBL document CHEMBL1131904, “Peptidic immunosuppressants from the fungus Trichoderma polysporum” (Bioorg Med Chem Lett, 1999).

Numbered stars: 1 amine (or outer) side, 2 acyl side, 3 side chain; on linkers, the order of the positions; unused ones are H or OH. Square brackets hold non-standard residues; d marks the D form. Peptide text beside a SMILES is read from it. * marks the point of attachment. ξ: configuration not given here. X1 = CCC(=O)C[C@@H](O)C[C@@H](C)C[C@H](N[*:1])C(=O)[*:2]; Alaψ(CH2NMeCH2CH2OH) = C[C@@H](CN(C)CCO)N*; Decanoyl(2R-Me) = CCCCCCCC[C@@H](C)C(=O)*; X2 = CCCCCCC[C@H](O)[C@H](C)C(=O)*; Aib = CC(C)(N)C(=O)O; ξA = CC(N)C(=O)O

Assay [1] is filed under the species Mus musculus. In words: Inhibitory activity against the production of interleukin 4 (IL-4). In kind it is functional, organism-based.
The species entered for assay [2] is Mus musculus. In words: Inhibitory activity against the proliferation of lymphocytes in mouse allogenic mixed lymphocyte reaction (MLR). In kind it is functional, organism-based.

The IC50 is the concentration that gives 50% inhibition. A lower IC50 goes with greater potency in that assay. On to `CCCCCCCC[C@@H](C)C(=O)N1CCC[C@H]1C(=O)N[C@@H](C[C@H](C)C[C@H](O)CC(=O)CC)C(=O)N[C@@H](C)C(=O)NC(C)(C)C(=O)NC(C)(C)C(=O)N[C@H](C(=O)N[C@@H](C)C(=O)NC(C)(C)C(=O)NC(C)C(=O)N[C@@H](C)CN(C)CCO)C(C)C` (stereo partly drawn) ({Decanoyl(2R-Me)}-P[X1]A[Aib][Aib]VA[Aib][ξA]-{Alaψ(CH2NMeCH2CH2OH)}), for which the IC50 in the assay filed under Mus musculus [1] is greater than 1000 nM; in the assay listed under Mus musculus [2] it was 60.4 nM.

As to `CCCCCCC[C@H](O)[C@H](C)C(=O)N1CCC[C@H]1C(=O)N[C@@H](C[C@H](C)C[C@H](O)CC(=O)CC)C(=O)N[C@@H](C)C(=O)NC(C)(C)C(=O)NC(C)(C)C(=O)N[C@H](C(=O)N[C@@H](C)C(=O)NC(C)(C)C(=O)NC(C)(C)C(=O)N[C@@H](C)CN(C)CCO)[C@@H](C)CC` (X2-P[X1]A[Aib][Aib]IA[Aib][Aib]-{Alaψ(CH2NMeCH2CH2OH)}), the IC50 in the assay listed under Mus musculus [1] is greater than 1000 nM; in the assay filed under Mus musculus [2], 294 nM.

With `CCCCCCCC[C@@H](C)C(=O)N1CCC[C@H]1C(=O)N[C@@H](C[C@H](C)C[C@H](O)CC(=O)CC)C(=O)N[C@@H](C)C(=O)NC(C)(C)C(=O)NC(C)(C)C(=O)N[C@H](C(=O)N[C@@H](C)C(=O)NC(C)(C)C(=O)NC(C)(C)C(=O)N[C@@H](C)CN(C)CCO)C(C)C` ({Decanoyl(2R-Me)}-P[X1]A[Aib][Aib]VA[Aib][Aib]-{Alaψ(CH2NMeCH2CH2OH)}), the IC50 in the assay listed under Mus musculus [1] is greater than 1000 nM; in the assay listed under Mus musculus [2] it was 10.7 nM.

Take `CCCCCCCC[C@@H](C)C(=O)N1CCC[C@H]1C(=O)N[C@@H](C[C@H](C)C[C@H](O)CC(=O)CC)C(=O)N[C@@H](C)C(=O)NC(C)(C)C(=O)NC(C)(C)C(=O)N[C@H](C(=O)N[C@@H](C)C(=O)NC(C)(C)C(=O)NC(C)C(=O)N[C@@H](C)CN(C)CCO)[C@@H](C)CC` (stereo partly drawn) ({Decanoyl(2R-Me)}-P[X1]A[Aib][Aib]IA[Aib][ξA]-{Alaψ(CH2NMeCH2CH2OH)}): the 50% inhibitory concentration (IC50) in the assay filed under Mus musculus [1] is greater than 1000 nM; in the assay filed under Mus musculus [2] it was 20.5 nM.

For the compound `CCCCCCCC[C@@H](C)C(=O)N1CCC[C@H]1C(=O)N[C@@H](C[C@H](C)C[C@H](O)CC(=O)CC)C(=O)N[C@@H](C)C(=O)NC(C)(C)C(=O)NC(C)(C)C(=O)N[C@H](C(=O)N[C@@H](C)C(=O)NC(C)(C)C(=O)NC(C)(C)C(=O)N[C@@H](C)CN(C)CCO)[C@@H](C)CC` ({Decanoyl(2R-Me)}-P[X1]A[Aib][Aib]IA[Aib][Aib]-{Alaψ(CH2NMeCH2CH2OH)}), the half-maximal inhibitory concentration (IC50) in the assay listed under Mus musculus [1] was greater than 1000 nM; in the assay listed under Mus musculus [2] it was 5.2 nM.
